# Measurements reported in article PMC7504387, “Antimicrobial and Amyloidogenic Activity of Peptides Synthesized on the Basis of the Ribosomal S1 Protein from Thermus Thermophilus” (International Journal of Molecular Sciences, 2020).
# Where a SMILES comes first, the peptide text is derived from it.
# System: T. thermophilus cells
# Assay: Mass spectrometry proteome analysis of peptide-treated T. thermophilus cells
# Format: cell-based
# Design: change in number of ribosomal proteins in comparison with the control: dose or concentration left out as unconfirmed
# Details: for Ribosomal Proteins (number detected, 3 or more identified peptides) / All Proteins / total protein detected (number) / detection of ribosomal S1 protein: 24 h; for Ribosomal Proteins (number detected, 3 or more identified peptides): control 51 (with S1), homogenization by freezing-thawing; for All Proteins / total protein detected (number): control 386; for detection of ribosomal S1 protein: control with S1; for Number of proteins, keyword Aminotransferase / Number of proteins, keyword Aromatic amino acid biosynthesis / Number of proteins, keyword DNA replication / Number of proteins, keyword Endonuclease / Number of proteins, keyword Histidine biosynthesis / Number of proteins, keyword Nuclease / Number of proteins, keyword One-carbon metabolism / Number of proteins, keyword Potassium / Number of proteins, keyword Purine salvage / Number of proteins, keyword S-adenosyl-L-methionine / Number of proteins, keyword Serine/threonine-protein kinase / Number of proteins, keyword tRNA processing: 0 μg/ml: 1; for Number of proteins, keyword Isoleucine biosynthesis / Number of proteins, keyword Ribosome biogenesis: 0 μg/ml: 2; for Number of proteins, keyword Aminopeptidase / Number of proteins, keyword Phosphoprotein / Number of proteins, keyword Purine biosynthesis / Number of proteins, keyword Redox-active center: 0 μg/ml: 3; for Number of proteins, keyword Glyoxylate bypass / Number of proteins, keyword Threonine biosynthesis: 0 μg/ml: 4; for Number of proteins, keyword Methionine biosynthesis: 0 μg/ml: 5; for Number of proteins, keyword Allosteric enzyme: 0 μg/ml: 6; for Number of proteins, keyword Serine protease: 0 μg/ml: 7; for Number of proteins, keyword NADP: 0 μg/ml: 8; for Number of proteins, keyword Protease: 0 μg/ml: 16; for Number of proteins, keyword Aminoacyl-tRNA synthetase: 0 μg/ml: 20; for Number of proteins, keyword Magnesium: 0 μg/ml: 23; for Number of proteins, keyword Hydrolase: 0 μg/ml: 26; for Unique proteins (number): control 100
# Protocol: T. thermophilus cells were incubated with or without peptides for 24 h. […] The cell extract was not allowed to heat above +10 °C. Cell debris and aggregates were collected by sedimentation using centrifugation in a 221.23 V20 rotor of a Z 36 HK centrifuge (Hermle Labortechnik GmbH, Wehingen, Germany) at 20,000× g 20 min at +4 °C. The supernatant was dried using a vacuum Concentrator 5301 (Eppendorf, Hamburg, Germany). The prepared lysate was dissolved in 100 μL of 9M urea to denature the total protein. Then, 20 μL of cell lysates was separated by electrophoretic in 12% SDS-PAGE. Protein fractions were divided on three equal parts, that every part was chop and treated with trypsin protease. Mass spectrometry analysis of every part was carried out independently. To purify the samples treated with trypsin, filtration was carried out through ZipTips (MilliporeSigma, Burlington, MA, USA). Protein hydrolyzates were concentrated on a pre-column Acclaim PepMap 100 (C18, 3 μm particle size, 100 Å pore size, 300 μm inner diameter × 5 mm length) and separated on an analytical column Acclaim PepMap RSLC (2 μm particle size, 100 Å pore size, 75 μm inner diameter × 150 mm length) (Thermo Scientific, Waltham, MA, USA) using nanoflow liquid chromatograph EASY nLC 1000 (Thermo Scientific, Waltham, MA, USA). A high-performance mass spectrometer an Orbitrap Elite (Thermo Scientific, Dreieich, Germany) was used as a detector. Panoramic spectra were recorded in the mass range m/z 300–2000 at resolution 60,000; ion fragmentation was performed in an HCD cell; the fragmentation spectra were recorded at resolution 15,000. Preliminary selection of identified peptides with a molecular mass (MM) >600 Da was carried out according to the evaluation criteria of the PEAKS Studio 7.5 program (Bioinformatics Solution Inc., Waterloo, ON N2L 6J2, Canada). The peptides with the threshold function value T = −10·logP > 15 were considered significant, where P is the probability that false identification will reach the same or better match score. The T value of >15 corresponds to the p criterion <0.03 [29]. The received fragmentation spectra were analyzed by web-server Identipy. Identification of proteins in the mass spectra of the total protein was carried out using the database of the reference T. thermophilus proteome (Uniprot, No. UP000217909). Proteome data every part was summarized. Subsequent analysis was conducted by using the statistics software R with packages UniProt.ws, tidyverse, ggplot2, splitstackshape, reshape, readr, RVenn, UpSetR (https://rdrr.io/bioc/UniProt.ws/; https://CRAN.R-project.org/package=readr; https://CRAN.R-project.org/package=splitstackshape; https://CRAN.R-project.org/package=readr; https://CRAN.R-project.org/package=RVen).
# Annotation of the certain proteins by keywords of the Uniprot database allows us to evaluate the changes in protein composition in 10 categories: biological process, cellular component, variety of coding sequences, molecular function, and others. The number of keywords corresponds to the number of annotated proteins.
compound,measurement,setting,value
CC[C@H](C)[C@H](NC(=O)[C@H](CCC(=O)O)NC(=O)[C@@H](NC(=O)[C@H](Cc1ccccc1)NC(=O)[C@@H](NC(=O)CNC(=O)[C@H](Cc1ccccc1)NC(=O)[C@H](CC(=O)O)NC(=O)[C@@H](NC(=O)[C@@H](NC(=O)CNC(=O)CN(C)C(=O)CNC(=O)CNC(=O)[C@H](CCCNC(=N)N)NC(=O)[C@H](CCCNC(=N)N)NC(=O)[C@H](CCCNC(=N)N)NC(=O)[C@H](CCC(N)=O)NC(=O)[C@H](CCCNC(=N)N)NC(=O)[C@H](CCCNC(=N)N)NC(=O)[C@H](CCCCN)NC(=O)[C@H](CCCCN)NC(=O)[C@@H](N)CCCNC(=N)N)C(C)C)[C@@H](C)O)C(C)C)C(C)C)C(=O)O [R23I] (HELM PEPTIDE1{R.K.K.R.R.Q.R.R.R.G.G.[Sar].G.V.T.D.F.G.V.F.V.E.I}$$$$V2.0; N-terminus and C-terminus assumed),change in number of ribosomal proteins in comparison with the control,R23I,more than two-fold decrease
same,less numbers of proteins detected relative to the control,R23I 20 μg/mL,40%
same,Common proteins for cells in control and treated cells (number),R23I 20 μg/ml,20
same,"Ribosomal Proteins (number detected, 3 or more identified peptides)",R23I 20 μg/ml,42
same,All Proteins / total protein detected (number),R23I 20 μg/ml,232
same,detection of ribosomal S1 protein,R23I 20 μg/ml,42 (without S1)
same,"Number of proteins, keyword Aminotransferase",R23I 20 μg/ml,0
same,"Number of proteins, keyword Aromatic amino acid biosynthesis",R23I 20 μg/ml,0
same,"Number of proteins, keyword DNA replication",R23I 20 μg/ml,0
same,"Number of proteins, keyword Endonuclease",R23I 20 μg/ml,0
same,"Number of proteins, keyword Histidine biosynthesis",R23I 20 μg/ml,0
same,"Number of proteins, keyword Nuclease",R23I 20 μg/ml,0
same,"Number of proteins, keyword One-carbon metabolism",R23I 20 μg/ml,0
same,"Number of proteins, keyword Potassium",R23I 20 μg/ml,0
same,"Number of proteins, keyword Purine salvage",R23I 20 μg/ml,0
same,"Number of proteins, keyword S-adenosyl-L-methionine",R23I 20 μg/ml,0
same,"Number of proteins, keyword Serine/threonine-protein kinase",R23I 20 μg/ml,0
same,"Number of proteins, keyword tRNA processing",R23I 20 μg/ml,0
same,"Number of proteins, keyword Isoleucine biosynthesis",R23I 20 μg/ml,0
same,"Number of proteins, keyword Ribosome biogenesis",R23I 20 μg/ml,0
same,"Number of proteins, keyword Aminopeptidase",R23I 20 μg/ml,0
same,"Number of proteins, keyword Phosphoprotein",R23I 20 μg/ml,1
same,"Number of proteins, keyword Purine biosynthesis",R23I 20 μg/ml,1
same,"Number of proteins, keyword Redox-active center",R23I 20 μg/ml,0
same,"Number of proteins, keyword Glyoxylate bypass",R23I 20 μg/ml,1
same,"Number of proteins, keyword Threonine biosynthesis",R23I 20 μg/ml,1
same,"Number of proteins, keyword Methionine biosynthesis",R23I 20 μg/ml,1
same,"Number of proteins, keyword Allosteric enzyme",R23I 20 μg/ml,1
same,"Number of proteins, keyword Serine protease",R23I 20 μg/ml,1
same,"Number of proteins, keyword NADP",R23I 20 μg/ml,2
same,"Number of proteins, keyword Protease",R23I 20 μg/ml,5
same,"Number of proteins, keyword Aminoacyl-tRNA synthetase",R23I 20 μg/ml,7
same,"Number of proteins, keyword Magnesium",R23I 20 μg/ml,9
same,"Number of proteins, keyword Hydrolase",R23I 20 μg/ml,9
same,Unique proteins (number),R23I 20 μg/ml,11
same,less numbers of proteins detected relative to the control,R23I 50 μg/mL,48%
same,ratio of proteins from treated cells to proteins from intact cells,"R23I 50 μg/mL, 201 to 386 proteins",0.52
same,Common proteins for cells in control and treated cells (number),R23I 50 μg/ml,9
same,"Ribosomal Proteins (number detected, 3 or more identified peptides)",R23I 50 μg/ml,39
same,All Proteins / total protein detected (number),R23I 50 μg/ml,201
same,detection of ribosomal S1 protein,R23I 50 μg/ml,39 (without S1)
same,"Number of proteins, keyword Aminotransferase",R23I 50 μg/ml,0
same,"Number of proteins, keyword Aromatic amino acid biosynthesis",R23I 50 μg/ml,0
same,"Number of proteins, keyword DNA replication",R23I 50 μg/ml,0
same,"Number of proteins, keyword Endonuclease",R23I 50 μg/ml,0
same,"Number of proteins, keyword Histidine biosynthesis",R23I 50 μg/ml,0
same,"Number of proteins, keyword Nuclease",R23I 50 μg/ml,0
same,"Number of proteins, keyword One-carbon metabolism",R23I 50 μg/ml,0
same,"Number of proteins, keyword Potassium",R23I 50 μg/ml,0
same,"Number of proteins, keyword Purine salvage",R23I 50 μg/ml,0
same,"Number of proteins, keyword S-adenosyl-L-methionine",R23I 50 μg/ml,0
same,"Number of proteins, keyword Serine/threonine-protein kinase",R23I 50 μg/ml,0
same,"Number of proteins, keyword tRNA processing",R23I 50 μg/ml,1
same,"Number of proteins, keyword Isoleucine biosynthesis",R23I 50 μg/ml,0
same,"Number of proteins, keyword Ribosome biogenesis",R23I 50 μg/ml,0
same,"Number of proteins, keyword Aminopeptidase",R23I 50 μg/ml,0
same,"Number of proteins, keyword Phosphoprotein",R23I 50 μg/ml,2
same,"Number of proteins, keyword Purine biosynthesis",R23I 50 μg/ml,1
same,"Number of proteins, keyword Redox-active center",R23I 50 μg/ml,0
same,"Number of proteins, keyword Glyoxylate bypass",R23I 50 μg/ml,1
same,"Number of proteins, keyword Threonine biosynthesis",R23I 50 μg/ml,1
same,"Number of proteins, keyword Methionine biosynthesis",R23I 50 μg/ml,1
same,"Number of proteins, keyword Allosteric enzyme",R23I 50 μg/ml,1
same,"Number of proteins, keyword Serine protease",R23I 50 μg/ml,2
same,"Number of proteins, keyword NADP",R23I 50 μg/ml,2
same,"Number of proteins, keyword Protease",R23I 50 μg/ml,5
same,"Number of proteins, keyword Aminoacyl-tRNA synthetase",R23I 50 μg/ml,7
same,"Number of proteins, keyword Magnesium",R23I 50 μg/ml,9
same,"Number of proteins, keyword Hydrolase",R23I 50 μg/ml,8
same,Unique proteins (number),R23I 50 μg/ml,2
same,Common proteins for cells in control and treated cells (number),R23I 100 μg/ml,69
same,"Ribosomal Proteins (number detected, 3 or more identified peptides)",R23I 100 μg/ml,23
same,All Proteins / total protein detected (number),R23I 100 μg/ml,395
same,detection of ribosomal S1 protein,R23I 100 μg/ml,23 (with S1)
same,"Number of proteins, keyword Aminotransferase",R23I 100 μg/ml,1
same,"Number of proteins, keyword Aromatic amino acid biosynthesis",R23I 100 μg/ml,1
same,"Number of proteins, keyword DNA replication",R23I 100 μg/ml,2
same,"Number of proteins, keyword Endonuclease",R23I 100 μg/ml,2
same,"Number of proteins, keyword Histidine biosynthesis",R23I 100 μg/ml,1
same,"Number of proteins, keyword Nuclease",R23I 100 μg/ml,2
same,"Number of proteins, keyword One-carbon metabolism",R23I 100 μg/ml,1
same,"Number of proteins, keyword Potassium",R23I 100 μg/ml,1
same,"Number of proteins, keyword Purine salvage",R23I 100 μg/ml,0
same,"Number of proteins, keyword S-adenosyl-L-methionine",R23I 100 μg/ml,1
same,"Number of proteins, keyword Serine/threonine-protein kinase",R23I 100 μg/ml,0
same,"Number of proteins, keyword tRNA processing",R23I 100 μg/ml,1
same,"Number of proteins, keyword Isoleucine biosynthesis",R23I 100 μg/ml,1
same,"Number of proteins, keyword Ribosome biogenesis",R23I 100 μg/ml,0
same,"Number of proteins, keyword Aminopeptidase",R23I 100 μg/ml,0
same,"Number of proteins, keyword Phosphoprotein",R23I 100 μg/ml,5
same,"Number of proteins, keyword Purine biosynthesis",R23I 100 μg/ml,3
same,"Number of proteins, keyword Redox-active center",R23I 100 μg/ml,3
same,"Number of proteins, keyword Glyoxylate bypass",R23I 100 μg/ml,4
same,"Number of proteins, keyword Threonine biosynthesis",R23I 100 μg/ml,2
same,"Number of proteins, keyword Methionine biosynthesis",R23I 100 μg/ml,3
same,"Number of proteins, keyword Allosteric enzyme",R23I 100 μg/ml,4
same,"Number of proteins, keyword Serine protease",R23I 100 μg/ml,3
same,"Number of proteins, keyword NADP",R23I 100 μg/ml,6
same,"Number of proteins, keyword Protease",R23I 100 μg/ml,11
same,"Number of proteins, keyword Aminoacyl-tRNA synthetase",R23I 100 μg/ml,19
same,"Number of proteins, keyword Magnesium",R23I 100 μg/ml,33
same,"Number of proteins, keyword Hydrolase",R23I 100 μg/ml,31
same,Unique proteins (number),R23I 100 μg/ml,176
